Test results published in patent publication US20240182460A1, “ALLOSTERIC CHROMENONE INHIBITORS OF PHOSPHOINOSITIDE 3-KINASE (PI3K) FOR THE TREATMENT OF DISEASE” (PETRA PHARMA CORPORATION, priority 2022, published 2024).
Where two headings read alike, the source gives them in different places. Each block holds one molecule with its values, some of them ahead of it.

Columns and labels:
PI3Kα H1047R = biological target: T1, PI3Kα H1047R (Homo sapiens, UniProt P42336, H1047R); assay: PI3Kα H1047R mutant in vitro cell based assay, MDA-MB-453 cells (AlphaLisa SureFire); conditions: MDA-MB-453 cell line, 0% FBS, 3 hours treatment
T1 construct: The MDA-MB-453 (ATCC-HTB-131) cell line (PI3Kα H1047R); host or cells: MDA-MB-453
Source text: PI3K-Alpha Kinase (PI3Kα) Activity: Wild-Type PI3Kα, H1047R Mutant PI3Kα, and E545K Mutant PI3Kα In Vitro Cell Based Assays and Determination of IC50 Values for Inhibitors
The MDA-MB-453 (ATCC-HTB-131) cell line (PI3Kα H1047R) and MCF-7 (ATCC-HTB-22) cell line (PI3Kα E545K), MDA-MB-361 (ATCC-HTB-27) cell line (PI3Kα E545K), and SKBR3 (ATCC-HTB-30) cell line (wild type PI3Kα) were obtained from the American Type Culture Collection (Manassas, VA). MDA-MB-453 cells were maintained in Dulbecco's Modified Eagle Media (DMEM, Gibco 12430) supplemented with 10% Fetal Bovine Serum, heat inactivated (FBS HI, Gibco 10082), 1× non-essential amino acids (NEAA, Gibco 11140), 1 mM sodium pyruvate (Gibco 11360) and 1× Anti-Anti (Gibco 15240). MCF-7 cells were maintained in Minimum Essential Media (MEM) (Gibco 11095) supplemented with 10% Fetal Bovine Serum, heat inactivated (FBS HI, Gibco 10082), 1× non-essential amino acids (NEAA, Gibco 11140), 1 mM sodium pyruvate (Gibco 11360), 1× Anti-Anti (Gibco 15240) and 10 μg/mL human insulin (Sigma I 9278). MDA-MB-361 cells were maintained in Dulbecco's Modified Eagle Media (DMEM, Gibco 12430) supplemented with 20% Fetal Bovine Serum, heat inactivated (FBS HI, Gibco 10082), 1× non-essential amino acids (NEAA, Gibco 11140), 1 mM sodium pyruvate (Gibco 11360) and 1× Anti-Anti (Gibco 15240). SKBR3 cells were maintained in McCoy's 5A (Gibco 16600) supplemented with 10% Fetal Bovine Serum, heat inactivated (FBS HI, Gibco 10082), and 1× Anti-Anti (Gibco 15240). Cultures were maintained in a humidified incubator at 37° C. under 5% CO2/95% air.
For compound testing in 0% FBS, MDA-MB-453, MCF-7 and SKBR3 cells were seeded at a density of 1.5×10^4, 1.0×10^4, and 1.0×10^4 cells, respectively, per well in white 384-well plates in 20 μl of Minimum Essential Media (MEM) assay media with 1×NEAA, 1 mM sodium pyruvate, and 1 μg/mL human insulin (Sigma 19278) (Assay Medium); while MDA-MB-361 cells were seeded at a density of 1.5×10^4 per well in white 384-well plates in 20 μl Assay Medium without insulin. After plating, cells were allowed to attach overnight. Compounds dissolved in 10 mM stock solutions in DMSO were serially diluted 1:3 in DMSO to generate a 10-point dilution series and plated using an acoustic liquid handler system (Echo 550 Series Liquid Handler, Labcyte). A 5× intermediate compound dilution plate in MEM with 1×NEAA and 1 mM sodium pyruvate (150 μM starting compound concentration in 1.5% DMSO) was then prepared. Five μl of the intermediate serially diluted compounds were added to the cell plate to final concentrations ranging from […] in 0.3% DMSO. 0.3% DMSO alone was used to establish the maximum (MAX) signal and GDC-0032 at a final concentration of 1 μM was used as a reference compound for the minimum (MIN) signal. After 3 hours treatment, the medium was removed, and the cells were lysed in 10 μL of 1× SureFire Lysis buffer with shaking for 10 minutes at room temperature. The Acceptor Mix (Reaction Buffer 1+Reaction Buffer 2+Activation Buffer+SureFire Ultra Acceptor Beads) was prepared by diluting Activation buffer 25-fold in combined Reaction Buffer 1 and Reaction Buffer 2.
The Acceptor beads were diluted 50-fold in the combined Reaction Buffers. Five μL of Acceptor Mix was added to each well, the plate was sealed and covered with foil and incubated for 1 hour at room temperature. The Donor Mix (dilution buffer+SureFire Ultra Donor Beads) was prepared by diluting Donor Beads 50-fold in dilution buffer. Five μL of the Donor Mix was added to each well and the plate sealed and covered with foil and incubated for 1-2 hours at room temperature in the dark. The plates were read on a Neo2 plate reader instrument from Biotek using standard AlphaLisa settings.
Compounds were tested in duplicate and the % inhibition at each compound concentration was used to generate two dose response curves. One IC50 was generated using average % inhibition at each compound concentration. […]

PI3Kα E545K [1] = biological target: T2, PI3Kα E545K (Homo sapiens, UniProt P42336, E545K); assay: PI3Kα E545K mutant in vitro cell based assay, MCF-7 cells; conditions: MCF-7 cell line, 0% FBS, 3 hours treatment
Procedure, shortened: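 MCF-7 cells (PI3Kα E545K) in serum-free MEM with 1 μg/mL insulin were treated 3 h with 10-point 1:3 dilutions in 0.3% DMSO. Lysates were read by SureFire AlphaLisa. IC50 was fitted by 4-parameter logistic to % inhibition relative to DMSO (max) and 1 μM GDC-0032 (min), duplicates averaged.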

[2] = Metabolic stability and intrinsic clearance in human liver microsomes (MICS); format: in vitro ADME; conditions: pH 7.4
Procedure, shortened: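 Test compound (1 μM final) incubated at 37° C with liver microsomes (0.5 mg/mL protein) in 100 mM phosphate buffer pH 7.4, with 1 mM NADPH or without cofactor; sampled at 0.5–60 min, quenched with cold acetonitrile. Parent remaining quantified by LC-MS/MS; t1/2 from ln-% remaining slope converted to CLint (μL/min/mg protein).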

PI3Kα E545K [3] = biological target: T2, PI3Kα E545K; assay: PI3Kα E545K mutant in vitro cell based assay, MDA-MB-361 cells; set-up: MDA-MB-361 (ATCC-HTB-27) cell line (PI3Kα E545K); host or cells: MDA-MB-361; conditions: MDA-MB-361 cell line, 0% FBS, no insulin, 3 hours treatment
Procedure, shortened: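 MDA-MB-361 cells (PI3Kα E545K) seeded in serum-free MEM assay medium without insulin, attached overnight, then treated 3 h with compound (10-point 1:3 series, 0.3% DMSO). AlphaLISA SureFire readout of lysates. IC50 by 4-parameter fit, normalized to DMSO (max) and 1 μM GDC-0032 (min).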

T1 sequence (P42336 whole entry H1047R): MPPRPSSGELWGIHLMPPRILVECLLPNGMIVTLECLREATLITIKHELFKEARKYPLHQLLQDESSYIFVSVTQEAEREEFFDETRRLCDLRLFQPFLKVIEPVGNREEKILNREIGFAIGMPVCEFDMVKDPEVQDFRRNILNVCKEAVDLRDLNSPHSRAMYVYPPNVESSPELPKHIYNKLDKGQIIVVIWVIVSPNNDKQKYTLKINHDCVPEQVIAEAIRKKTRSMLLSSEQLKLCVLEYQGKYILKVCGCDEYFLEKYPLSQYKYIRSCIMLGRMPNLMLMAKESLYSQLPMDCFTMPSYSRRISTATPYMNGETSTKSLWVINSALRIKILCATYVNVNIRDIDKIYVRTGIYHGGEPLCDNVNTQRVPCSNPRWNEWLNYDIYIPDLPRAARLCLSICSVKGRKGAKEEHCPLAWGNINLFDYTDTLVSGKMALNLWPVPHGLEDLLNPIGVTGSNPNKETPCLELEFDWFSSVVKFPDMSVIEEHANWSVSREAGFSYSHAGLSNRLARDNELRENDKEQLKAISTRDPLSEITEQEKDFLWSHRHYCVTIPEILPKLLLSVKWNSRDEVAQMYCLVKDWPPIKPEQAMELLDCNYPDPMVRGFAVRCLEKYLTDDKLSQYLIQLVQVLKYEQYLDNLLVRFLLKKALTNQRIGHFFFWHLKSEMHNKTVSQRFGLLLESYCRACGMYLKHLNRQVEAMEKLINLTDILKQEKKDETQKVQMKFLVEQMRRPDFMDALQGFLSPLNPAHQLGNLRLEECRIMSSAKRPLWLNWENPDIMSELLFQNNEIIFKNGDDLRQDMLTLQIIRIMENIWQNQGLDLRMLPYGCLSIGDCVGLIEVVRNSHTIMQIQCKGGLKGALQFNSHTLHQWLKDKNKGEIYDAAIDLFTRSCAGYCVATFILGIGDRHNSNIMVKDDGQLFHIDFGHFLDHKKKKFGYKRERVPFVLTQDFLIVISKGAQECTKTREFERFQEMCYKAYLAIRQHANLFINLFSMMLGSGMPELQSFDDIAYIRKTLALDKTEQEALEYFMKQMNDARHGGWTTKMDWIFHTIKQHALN
T1 sequence (P27986 whole entry partner): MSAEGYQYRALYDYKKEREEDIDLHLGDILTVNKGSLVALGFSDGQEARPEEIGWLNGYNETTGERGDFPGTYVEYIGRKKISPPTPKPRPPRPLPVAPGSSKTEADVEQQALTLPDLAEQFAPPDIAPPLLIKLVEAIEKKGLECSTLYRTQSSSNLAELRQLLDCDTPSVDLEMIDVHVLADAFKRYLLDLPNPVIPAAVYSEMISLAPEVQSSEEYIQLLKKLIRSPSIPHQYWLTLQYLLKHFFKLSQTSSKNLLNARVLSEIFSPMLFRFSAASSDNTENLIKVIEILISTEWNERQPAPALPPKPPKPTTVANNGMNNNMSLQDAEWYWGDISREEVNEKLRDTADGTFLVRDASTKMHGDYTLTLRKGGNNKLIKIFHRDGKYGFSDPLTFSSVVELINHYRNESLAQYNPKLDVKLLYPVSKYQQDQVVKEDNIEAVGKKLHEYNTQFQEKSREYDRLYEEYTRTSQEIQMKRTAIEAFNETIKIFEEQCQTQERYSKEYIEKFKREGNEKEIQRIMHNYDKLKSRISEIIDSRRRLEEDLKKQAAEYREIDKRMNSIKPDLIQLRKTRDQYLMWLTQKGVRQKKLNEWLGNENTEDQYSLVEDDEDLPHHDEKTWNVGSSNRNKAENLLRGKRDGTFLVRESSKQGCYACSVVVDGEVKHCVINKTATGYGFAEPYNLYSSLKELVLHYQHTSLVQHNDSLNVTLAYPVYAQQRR
T2 sequence (P42336 whole entry E545K): as the sequence (P42336 whole entry H1047R) above, with E545K, R1047H counted along it
T2 sequence (P27986 whole entry partner): as the sequence (P27986 whole entry partner) above

SMILES: Cc1cc([C@@H](C)Oc2ccc(Cl)nc2C)c2oc(-c3ccccc3)c(C)c(=O)c2c1 [Example 1, 8-[(1R)-1-[(6-Chloro-2-methyl-3-pyridyl)oxy]ethyl]-3,6-dimethyl-2-phenyl-chromen-4-one]
IC50 (PI3Kα H1047R): < 100 nM
IC50 (PI3Kα E545K [1]): < 500 nM

SMILES: Cc1cc([C@@H](C)Oc2ccc(Cl)nc2S(C)(=O)=O)c2oc(-c3cnn(CCO)c3)c(C)c(=O)c2c1 [Example 29B, 8-[(1R)-1-[(6-Chloro-2-methylsulfonyl-3-pyridyl)oxy]ethyl]-2-[1-(2-hydroxyethyl)pyrazol-4-yl]-3,6-dimethyl-chromen-4-one]
IC50 (PI3Kα H1047R): < 100 nM
IC50 (PI3Kα E545K [3]): < 500 nM
IC50 (PI3Kα E545K [1]): < 500 nM

SMILES: Cc1cc([C@@H](C)Oc2ccc(Cl)nc2S(N)(=O)=O)c2oc(-c3ccc(S(C)(=O)=O)cc3)c(C)c(=O)c2c1 [Example 31C, 6-Chloro-3-[(1R)-1-[3,6-dimethyl-2-(4-methylsulfonylphenyl)-4-oxo-chromen-8-yl]ethoxy]pyridine-2-sulfonamide]
IC50 (PI3Kα H1047R): < 100 nM
IC50 (PI3Kα E545K [3]): < 500 nM
IC50 (PI3Kα E545K [1]): < 500 nM

SMILES: Cc1cc([C@@H](C)Oc2ccc(Cl)nc2S(N)(=O)=O)c2oc(-c3cccnc3)c(C)c(=O)c2c1 [Example 42A, 6-Chloro-3-[(1R)-1-[3,6-dimethyl-4-oxo-2-(3-pyridyl)chromen-8-yl]ethoxy]pyridine-2-sulfonamide]
IC50 (PI3Kα H1047R): < 100 nM
microsomal CLint at 1 μM ([2]; human, microsomes): < 50 µL/min/mg

SMILES: Cc1cc([C@@H](C)Oc2ccc(Cl)nc2C(N)=O)c2oc(-c3cc(C)c4nn(C)cc4c3)c(C)c(=O)c2c1 [Example 45C, 6-Chloro-3-[(1R)-1-[2-(2,7-dimethylindazol-5-yl)-3,6-dimethyl-4-oxo-chromen-8-yl]ethoxy]pyridine-2-carboxamide]
IC50 (PI3Kα H1047R): < 100 nM
IC50 (PI3Kα E545K [1]): < 500 nM

SMILES: Cc1cc([C@@H](C)Oc2ccc(Cl)nc2C(N)=O)c2oc(-c3ccc4nn(C)cc4c3)cc(=O)c2c1 [Example 52A, 6-Chloro-3-[(1R)-1-[6-methyl-2-(2-methylindazol-5-yl)-4-oxo-chromen-8-yl]ethoxy]pyridine-2-carboxamide]
IC50 (PI3Kα H1047R): < 100 nM
IC50 (PI3Kα E545K [3]): < 500 nM
IC50 (PI3Kα E545K [1]): < 500 nM

SMILES: Cc1cc([C@@H](C)Oc2ccc(Cl)nc2C(N)=O)c2oc(-c3ccc4nc(C)sc4c3)c(C)c(=O)c2c1 [Example 68A, 6-Chloro-3-[(1R)-1-[3,6-dimethyl-2-(2-methyl-1,3-benzothiazol-6-yl)-4-oxo-chromen-8-yl]ethoxy]pyridine-2-carboxamide]
IC50 (PI3Kα H1047R): < 100 nM
IC50 (PI3Kα E545K [3]): < 500 nM
IC50 (PI3Kα E545K [1]): < 500 nM

SMILES: Cc1cc([C@@H](C)Oc2ccc(Cl)nc2S(N)(=O)=O)c2oc(C3CC3)c(C)c(=O)c2c1 [Example 74A, 6-Chloro-3-[(1R)-1-(2-cyclopropyl-3,6-dimethyl-4-oxo-chromen-8-yl)ethoxy]pyridine-2-sulfonamide]
IC50 (PI3Kα H1047R): < 100 nM
IC50 (PI3Kα E545K [3]): < 500 nM
IC50 (PI3Kα E545K [1]): < 500 nM

SMILES: Cc1cc([C@@H](C)Oc2cccnc2S(N)(=O)=O)c2oc(-c3ccccc3)c(C)c(=O)c2c1 [Example 94C, 3-[(1R)-1-(3,6-Dimethyl-4-oxo-2-phenyl-chromen-8-yl)ethoxy]pyridine-2-sulfonamide]
IC50 (PI3Kα H1047R): < 100 nM
IC50 (PI3Kα E545K [1]): < 500 nM

Results, then the molecule that gave them:

IC50 (PI3Kα H1047R): < 100 nM
IC50 (PI3Kα E545K [1]): < 500 nM
SMILES: Cc1cc(C(C)Oc2ccc(Cl)nc2C)c2oc(-c3cccnc3)c(C)c(=O)c2c1 (single isomer, unassigned; isomer 2) [Example 10, 8-[1-[(6-Chloro-2-methyl-3-pyridyl)oxy]ethyl]-3,6-dimethyl-2-(3-pyridyl)chromen-4-one, Isomer 2]

IC50 (PI3Kα H1047R): < 100 nM
microsomal CLint at 1 μM ([2]; human liver microsomes 0.5 mg/mL, 1 μM compound, read-out: intrinsic clearance in human MICS): < 50 µL/min/mg
IC50 (PI3Kα E545K [1]): < 500 nM
SMILES: Cc1cc([C@@H](C)Oc2ccc(Cl)nc2-c2noc(=O)[nH]2)c2oc(-c3ccccc3)c(C)c(=O)c2c1 [Example 2, 3-[6-Chloro-3-[(1R)-1-(3,6-dimethyl-4-oxo-2-phenyl-chromen-8-yl)ethoxy]-2-pyridyl]-4H-1,2,4-oxadiazol-5-one]

IC50 (PI3Kα H1047R): < 100 nM
IC50 (PI3Kα E545K [3]): < 500 nM
IC50 (PI3Kα E545K [1]): < 500 nM
SMILES: Cc1cc([C@@H](C)Oc2ccc(Cl)nc2C(N)=O)c2oc(-c3ccc4[nH]ncc4c3)c(C)c(=O)c2c1 [Example 22B, 6-Chloro-3-[(1R)-1-[2-(1H-indazol-5-yl)-3,6-dimethyl-4-oxo-chromen-8-yl]ethoxy]pyridine-2-carboxamide]

IC50 (PI3Kα H1047R): < 100 nM
IC50 (PI3Kα E545K [3]): < 500 nM
IC50 (PI3Kα E545K [1]): < 500 nM
SMILES: Cc1cc([C@@H](C)Oc2ccc(Cl)nc2N)c2oc(-c3cnn(C)c3)c(C)c(=O)c2c1 [Example 30B, 8-[(1R)-1-[(2-Amino-6-chloro-3-pyridyl)oxy]ethyl]-3,6-dimethyl-2-(1-methylpyrazol-4-yl)chromen-4-one]

IC50 (PI3Kα H1047R): < 100 nM
microsomal CLint at 1 μM ([2]; human, microsomes): < 50 µL/min/mg
SMILES: Cc1cc([C@@H](C)Oc2ccc(Cl)nc2-c2noc(=O)[nH]2)c2oc(-c3cnc4c(c3)OCO4)c(C)c(=O)c2c1 [Example 39A, 3-[6-Chloro-3-[(1R)-1-[2-([1,3]dioxolo[4,5-b]pyridin-6-yl)-3,6-dimethyl-4-oxo-chromen-8-yl]ethoxy]-2-pyridyl]-4H-1,2,4-oxadiazol-5-one]

IC50 (PI3Kα H1047R): < 100 nM
microsomal CLint at 1 μM ([2]; human, microsomes): < 50 µL/min/mg
IC50 (PI3Kα E545K [1]): < 500 nM
SMILES: Cc1cc([C@@H](C)Oc2ccc(Cl)nc2S(N)(=O)=O)c2oc(-c3cnc(C4CC4)nc3)c(C)c(=O)c2c1 [Example 83A, 6-Chloro-3-[(1R)-1-[2-(2-cyclopropylpyrimidin-5-yl)-3,6-dimethyl-4-oxo-chromen-8-yl]ethoxy]pyridine-2-sulfonamide]

IC50 (PI3Kα H1047R): < 100 nM
IC50 (PI3Kα E545K [3]): < 500 nM
IC50 (PI3Kα E545K [1]): < 500 nM
SMILES: Cc1cc([C@@H](C)Oc2ccc(Cl)nc2S(C)(=O)=O)c2oc(-c3cnn(C)c3)c(C)c(=O)c2c1 [Example 146A, 8-[(1R)-1-[(6-Chloro-2-methylsulfonyl-3-pyridyl)oxy]ethyl]-3,6-dimethyl-2-(1-methylpyrazol-4-yl)chromen-4-one]
